1 compound from patent publication US5427766A, “Radiolabeled steroids for use in radiochemical-guided surgery” (priority 1993, dated 1995) can be followed below.

The nature of this series: physchem. The class given is physicochemical. As to conditions: solid state. As for the experimental part: (Z)-Stannyl olefin 4 (25 mg, 41 μmol) was added to 1 mL of chloroform and iodine (10.9 mg, […]) was added with stirring. Rapid decoloration took place and an additional amount of iodine (1 mg) was added which imparted a pink color. Several drops of methanolic potassium fluoride was added which precipitated a tin complex. To the slurry was added 0.5 mL of saturated […] and the organic phase was separated, dried over sodium sulfate and evaporated to give an oil. This material was chromatographed using 2 percent methanol in chloroform on a 1 cm×10 cm flash gel column to give (Z)-iodo olefin 5 (15.3 mg) in 84 percent yield as a white solid.

What is called amount remaining is the share of the starting amount still present when the sample was taken. A low value points to a greater loss. Compound `CC[C@H]1C[C@@]2(C)[C@@H](CC[C@@]2(O)/C=C\I)[C@@H]2CCc3cc(O)ccc3[C@@H]12` [(Z)-iodo olefin 5, 11β-Ethyl-17α-(Z)-(iodovinyl)estra-3,17β-diol] displayed a share remaining at 168 h of 74%. Also, under “a week at 25° C., HPLC 254 nm”, the protodestannylation in product was found to be 3.4 area percent and the “suspect (E)-iodo” value came out at 10.9 area percent.
